Results from BindingDB's records for doi:10.1074/jbc.M109.067967 (University of Michigan, 2010).

Key:
[1] = molecular target: T1, Plasminogen activator inhibitor 1 (Homo sapiens, UniProt P05121); assay: Enzymatic Assay; conditions: pH 7.8; 23 °C
[2] = molecular target: Plasminogen activator inhibitor 1 (Mus musculus, UniProt P22777); assay: Enzymatic Assay; conditions: pH 7.8; 23 °C
[3] = molecular target: T1, Plasminogen activator inhibitor 1; assay: Enzyme activity assay using human and murine PAI-1.; conditions: pH 7.8

SMILES | IC50 [1] [µM] | IC50 [2] [nM] | IC50 [3] [nM]
O=C(O[C@@H]1Cc2c(O)cc(O)cc2O[C@@H]1c1cc(O)c(O)c(O)c1)c1cc(O)c(O)c(O)c1 [(-)-Epigallocatechin-3-o-gallate] | 0.091 |  | 
O=C(OCCOC(=O)c1cc(O)c(O)c(O)c1)c1cc(O)c(O)c(O)c1 [CDE-008] |  | 162 | 44
O=C(O[C@H]1CCCC[C@H]1OC(=O)c1cc(O)c(O)c(O)c1)c1cc(O)c(O)c(O)c1 [CDE-031] |  | 132 | 20
O=C(O[C@@H]1CCCC[C@H]1OC(=O)c1cc(O)c(O)c(O)c1)c1cc(O)c(O)c(O)c1 [CDE-034] |  | 644 | 116
O=C(Oc1ccccc1OC(=O)c1cc(O)c(O)c(O)c1)c1cc(O)c(O)c(O)c1 [CDE-056] |  | 758 | 74
O=C(OCC(COC(=O)c1cc(O)c(O)c(O)c1)OC(=O)c1cc(O)c(O)c(O)c1)c1cc(O)c(O)c(O)c1 [CDE-082] |  | 79 | 14
O=C(Oc1cc(O)cc2c1C[C@@H](OC(=O)c1cc(O)c(O)c(O)c1)[C@@H](c1cc(O)c(O)c(O)c1)O2)c1cc(O)c(O)c(O)c1 [Epigallocatechin-3,5-Digallate, C] | 0.33 |  | 
O=C(O)c1cc(O)c(O)c(O)c1 [Gallic Acid, F] | 6.6 |  | 
O=C1c2ccc(O)c(O)c2C(=O)c2c(O)ccc(O)c21 [Quinalizarin, E] | 4.4 |  | 
Oc1c(Cl)cc(Cl)c(Cl)c1Cc1c(O)c(Cl)cc(Cl)c1Cl [SMR000058356] | 3.8 |  | 
O=C(O)c1cc(O)c2c(c1)[C@H]([C@H]1c3cc(C(=O)O)cc(O)c3C(=O)c3c(O[C@@H]4O[C@H](CO)[C@@H](O)[C@H](O)[C@H]4O)cccc31)c1cccc(O[C@@H]3O[C@H](CO)[C@@H](O)[C@H](O)[C@H]3O)c1C2=O [Sennoside A, G] | 51 |  | 
O=C(OCC1OC(OC(=O)c2cc(O)c(O)c(OC(=O)c3cc(O)c(O)c(O)c3)c2)C(OC(=O)c2cc(O)c(O)c(OC(=O)c3cc(O)c(O)c(O)c3)c2)C(OC(=O)c2cc(O)c(O)c(OC(=O)c3cc(O)c(O)c(O)c3)c2)C1OC(=O)c1cc(O)c(O)c(OC(=O)c2cc(O)c(O)c(O)c2)c1)c1cc(O)c(O)c(OC(=O)c2cc(O)c(O)c(O)c2)c1 (centres undefined) [Tannic Acid, A] | 0.007 | 4.1 | 6.6
